Like-named read-outs stand apart in the source and are kept apart here. Where a SMILES comes first, the peptide text is derived from it. [ ]: non-standard residue; d: D form. The star is where a group is joined. DOTA = O=C(O)CN1CCN(CC(=O)O)CCN(CC(=O)*)CCN(CC(=O)O)CC1; Sta = CC(C)C[C@H](N)[C@@H](O)CC(=O)O; Cha = N[C@@H](CC1CCCCC1)C(=O)O; Nle = CCCC[C@H](N)C(=O)O; AEEA = NCCOCCOCC(=O)O; Sar = CNCC(=O)O
What was measured:
[1] = tested on: PC-3 xenografts; assay: Biodistribution in nude mice bearing subcutaneous PC-3 xenografts; type: in vivo, CD1 nude mice
Protocol: (§1) For animal experiments, the institutional and national guide for the care and use of laboratory animals was followed. CD1 nude mice (n = 36, female, 6 weeks old, 18-22 g body weight) were subcutaneously injected in the right thigh with 2 × 10^6 PC-3 cells in 300 μl of a medium-to-matrigel solution (50:50, v:v, BD Biosciences). […] DOTA-PEG4-BN conjugates were radiolabelled with ^111In as described elsewhere, and 1.85 MBq (0.25 μg, 7.4 MBq/μg in 100 μl NaCl) of radiopharmaceutical was injected in the tail vein of each animal. Injected dose was determined by counting the syringe before and after injection. At 1 h post injection, three mice per group were anesthetized and placed on a horizontal support for planar imaging. The same procedure was repeated at 6 h and 24 h post injection. Images were acquired for 60 to 90 s with a high-resolution scintigraphic camera equipped with a square tungsten collimator integrated with a CsI(Tl) scintillation structure, coupled to a Hamamatsu […] Flat Panel Position Sensitive Photomultiplier Tube (PSPMT), a pure tungsten shielding housing, a charge readout electronics, and a data acquisition system for online image display. Region of interest (ROI) analysis was performed by drawing a region over the visible tumor (target) and copying it to the opposite thigh (background). The counts in the tumor ROI divided by the counts in the background ROI provided tumor-to-background (T/B) ratios. After each imaging session, mice were euthanized. The organs and the tumors were excised and weighed, and the radioactivity was determined using a single well γ-counter. Results were expressed as percentage of injected dose per gram (%ID/g) of tissue.

[2] = as above; type: in vivo, CD1 nude mice; settings: female, CD1 nude, mouse, blood, iv, 0.25 μg, total radioactivity; 111In-labeled, 1 h post injection
Protocol: as §1

[3] = tested on: PC-3 xenografts; assay: Gamma camera planar imaging, tumor-to-background ROI analysis in mice with PC-3 xenografts; type: in vivo, CD1 nude mice
Protocol: as §1, with “Region of interest (ROI) analysis was performed by drawing a region over the visible tumor (target) and copying it to the opposite thigh (background). The counts in the tumor ROI divided by the counts in the background ROI provided tumor-to-background (T/B) ratios. After each imaging session, mice were euthanized.” left out

[4] = biological target: T1, gastrin-releasing peptide receptor (GRP-R) on PC-3 human prostate cancer cells (Homo sapiens, UniProt P30550); assay: Saturation binding experiments on whole PC-3 cells with 111In-labeled DOTA-PEG4-BN conjugates; settings: 4 °C; for B max (binding sites/cell) *10^5: 111In-labeled
T1 construct: endogenous in cells; host or cells: PC-3 human prostate cancer cells
Protocol: DOTA-PEG4-BN conjugates were studied in vitro performing saturation binding experiments on whole cells. The DOTA coupled derivatives were labeled in Eppendorf tubes containing 10 μL of ^111InCl3 (50–150 KBq/μL), 1 nmol of peptide (10 μM final concentration), and sodium acetate buffer (0.4 M, pH 5) adjusted to a final volume of 100 μL. The solution was incubated for 30 min at 95 °C in a heating block. Silica gel thin layer chromatography using 0.1 N sodium citrate (pH 5) as mobile phase was utilized for quality control. […] Saturation of free chelators with cold indium was not performed. Confluent PC-3 human prostate cancer cells were seeded in six-well plates (~1.0 × 10^6 cells) 24 h before starting the experiments. Increasing concentrations of the ^111In-DOTA-peptide ranging from 50 to 0.05 nM were assigned to different wells. For blocking experiments, excess of the respective unlabeled peptide was used. For each radioligand, triplicates were prepared for every concentration, for both total binding and nonspecific binding. Before adding the radioligands to the wells, the plates were placed on ice for 30 min. After adding the radioligands and the blocking for nonspecific binding, the plates were incubated for 1 h at 4 °C. Afterwards, the binding buffer was removed and the cells were washed twice with ice-cold phosphate-buffered saline (PBS; pH 7.4). Cell-bound radioactivity was subsequently recovered by trypsinization of the wells. Radioactivity in the bound and free fractions was determined with a WIZARD gamma counter (Wallac, Turku, Finland). Specific binding was calculated by subtracting nonspecific from total binding at each concentration of radioligand. Affinity (Kd) and binding site density (Bmax) were calculated from Scatchard plots using Prism software (GraphPad Software Inc.).
Saturation binding experiments were performed on PC-3 cells at 4 °C.

[5] = Serum stability of 177Lu-labeled peptides in human serum; type: in vitro ADME; settings: human serum (freshly prepared), 37 °C
Protocol: Quality controls to determine the labeling yield and the radiochemical purity were performed using radio-HPLC. Radiolabeled peptides were utilized without further purification. […] The mixture was incubated in a 5 % CO2, 37 °C. At different time points, 100 μL aliquots (in triplicates) were removed and treated with 200 μL of EtOH to precipitate serum proteins. Samples were then centrifuged for 15 min at 5000 rpm (2655g). After centrifugation, 50 μL of supernatant was removed and counted in a γ-well counter; the sediment was washed twice with 1 mL of EtOH and counted. The activity in the supernatant was compared with the activity in the pellet to obtain the percentage of peptide not bound to proteins or radiometal transferred to serum proteins. The supernatant was also analyzed with radio-HPLC (eluents: A = 0.1 % trifluoroacetic acid in water and B = acetonitrile; gradient 0–25 min 95–50 % B) to determine the relative amount of intact peptide and its metabolites in the serum. The half-life was calculated fitting a first-order reaction to the experimental data (Equation 1) using Prism software (GraphPad Software Inc.).

[6] = 111In-labeled, i.v., 1, 6, 24 h
[7] = first-order fit, read-out: Serum half-life (converted)

T1 sequence (P30550 whole entry): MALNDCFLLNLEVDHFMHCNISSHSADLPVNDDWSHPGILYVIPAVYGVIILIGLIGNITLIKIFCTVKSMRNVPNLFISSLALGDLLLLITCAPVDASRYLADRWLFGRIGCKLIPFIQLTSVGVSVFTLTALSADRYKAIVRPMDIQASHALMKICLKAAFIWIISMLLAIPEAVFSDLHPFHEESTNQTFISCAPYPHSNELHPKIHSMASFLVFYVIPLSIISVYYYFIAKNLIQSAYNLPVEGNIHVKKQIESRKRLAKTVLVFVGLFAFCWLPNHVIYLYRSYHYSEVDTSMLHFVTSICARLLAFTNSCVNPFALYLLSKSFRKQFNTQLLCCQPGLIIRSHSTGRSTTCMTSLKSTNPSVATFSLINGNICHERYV

| B max (binding sites/cell) *10^5 [4] | half-life at 0.6 nmol/mL [5, 7] | SMILES | Tumor targeting / uptake in PC-3 xenografts (in words) [1, 6] | also measured |
| --- | --- | --- | --- | --- |
| 5.54 ± 1.56 binding sites/cell *10^5 | 224 h | CC(C)C[C@H](NC(=O)C[C@H](O)[C@H](CC(C)C)NC(=O)[C@H](Cc1c[nH]cn1)NC(=O)CNC(=O)[C@@H](NC(=O)[C@H](C)NC(=O)[C@H](Cc1c[nH]c2ccccc12)NC(=O)[C@H](CCC(N)=O)NC(=O)COCCOCCNC(=O)COCCOCCNC(=O)CN1CCN(CC(=O)O)CCN(CC(=O)O)CCN(CC(=O)O)CC1)C(C)C)C(N)=O [BN4, -Gln-Trp-Ala-Val-Gly-His-Sta-Leu-NH2] ({DOTA-AEEA-AEEA}-QWAVGH[Sta]L-NH2) | very high initial uptake that dropped at later time points | Blood clearance / circulating half-life (in words) [1, 6]: longest circulating half-life of all tested compounds; tissue uptake at 1 h [2]: ~5 %ID/g; Tumor-to-background (T/B) ratios in vivo (in words) ([3]; 111In-labeled, tumor ROI vs opposite thigh): least favorable of all peptides |
|  | 208 h | CC(C)C[C@H](NC(=O)C[C@H](O)[C@H](CC(C)C)NC(=O)[C@H](Cc1c[nH]cn1)NC(=O)CNC(=O)[C@@H](NC(=O)[C@H](C)NC(=O)[C@H](Cc1c[nH]c2ccccc12)NC(=O)[C@H](CCC(N)=O)NC(=O)[C@@H](Cc1ccccc1)NC(=O)COCCOCCNC(=O)COCCOCCNC(=O)CN1CCN(CC(=O)O)CCN(CC(=O)O)CCN(CC(=O)O)CC1)C(C)C)C(N)=O [BN6, -DPhe-Gln-Trp-Ala-Val-Gly-His-Sta-Leu-NH2] |  |  |
| 2.45 ± 0.73 binding sites/cell *10^5 |  | CSCC[C@H](NC(=O)[C@H](CC(C)C)NC(=O)[C@H](Cc1c[nH]cn1)NC(=O)CNC(=O)[C@@H](NC(=O)[C@H](C)NC(=O)[C@H](Cc1c[nH]c2ccccc12)NC(=O)[C@H](CCC(N)=O)NC(=O)COCCOCCNC(=O)COCCOCCNC(=O)CN1CCN(CC(=O)O)CCN(CC(=O)O)CCN(CC(=O)O)CC1)C(C)C)C(N)=O [BN1] | rather poor | Blood clearance / circulating half-life (in words) ([1]; mouse, in vivo, iv): very rapid blood clearance |
| 4.10 ± 1.23 binding sites/cell *10^5 | ~20 h | CCCC[C@H](NC(=O)[C@H](CC1CCCCC1)NC(=O)[C@H](Cc1c[nH]cn1)NC(=O)CNC(=O)[C@@H](NC(=O)[C@H](C)NC(=O)[C@H](Cc1c[nH]c2ccccc12)NC(=O)[C@H](CCC(N)=O)NC(=O)COCCOCCNC(=O)COCCOCCNC(=O)CN1CCN(CC(=O)O)CCN(CC(=O)O)CCN(CC(=O)O)CC1)C(C)C)C(N)=O [BN2, -Gln-Trp-Ala-Val-Gly-His-Cha-Nle-NH2] ({DOTA-AEEA-AEEA}-QWAVGH[Cha][Nle]-NH2) |  |  |
|  | ~20 h | CCCC[C@H](NC(=O)[C@H](CC1CCCCC1)NC(=O)[C@H](Cc1c[nH]cn1)NC(=O)CNC(=O)[C@@H](NC(=O)[C@H](C)NC(=O)[C@H](Cc1c[nH]c2ccccc12)NC(=O)[C@H](CCC(N)=O)NC(=O)[C@@H](Cc1ccccc1)NC(=O)COCCOCCNC(=O)COCCOCCNC(=O)CN1CCN(CC(=O)O)CCN(CC(=O)O)CCN(CC(=O)O)CC1)C(C)C)C(N)=O [BN7, -DPhe-Gln-Trp-Ala-Val-Gly-His-Cha-Nle-NH2] | overall poor targeting to the receptor-positive xenografts | Blood clearance / circulating half-life (in words) [1, 6]: very rapid blood clearance |
| 1.56 ± 0.39 binding sites/cell *10^5 |  | CC(C)C[C@H](NC(=O)C[C@H](O)[C@H](CC(C)C)NC(=O)[C@H](Cc1c[nH]cn1)NC(=O)CN(C)C(=O)[C@@H](NC(=O)[C@H](C)NC(=O)[C@H](Cc1c[nH]c2ccccc12)NC(=O)[C@H](CCC(N)=O)NC(=O)COCCOCCNC(=O)COCCOCCNC(=O)CN1CCN(CC(=O)O)CCN(CC(=O)O)CCN(CC(=O)O)CC1)C(C)C)C(N)=O [BN5, -Gln-Trp-Ala-Val-NMeGly-His-Sta-Leu-NH2] ({DOTA-AEEA-AEEA}-QWAV[Sar]H[Sta]L-NH2) |  |  |
|  | 414 h | CC(C)C[C@H](NC(=O)C[C@H](O)[C@H](CC(C)C)NC(=O)[C@H](Cc1c[nH]cn1)NC(=O)CN(C)C(=O)[C@@H](NC(=O)[C@H](C)NC(=O)[C@H](Cc1c[nH]c2ccccc12)NC(=O)[C@H](CCC(N)=O)NC(=O)[C@@H](Cc1ccccc1)NC(=O)COCCOCCNC(=O)COCCOCCNC(=O)CN1CCN(CC(=O)O)CCN(CC(=O)O)CCN(CC(=O)O)CC1)C(C)C)C(N)=O [BN8, DOTA-PEG-DPhe-Gln-Trp-Ala-Val-NMeGly-His-Sta-Leu-NH2] | highest tumor uptake | Imaging contrast of tumor uptake (in words) ([3]; gamma camera, 6 h post injection): best contrast of tumor uptake compared to other organs; half-life at 0.6 nmol/mL ([5]; read-out: Serum/plasma half-life): > 360 h |
|  | 40.7 h | CCCC[C@H](NC(=O)[C@H](CC1CCCCC1)NC(=O)[C@H](Cc1c[nH]cn1)NC(=O)CNC(=O)[C@@H](NC(=O)[C@H](C)NC(=O)[C@H](Cc1c[nH]c2ccccc12)NC(=O)[C@H](CCC(N)=O)NC(=O)COCCOCCNC(=O)COCCOCCNC(=O)CN1CCN(CC(=O)O)CCN(CC(=O)O)CCN(CC(=O)O)CC1)C(C)C)C(=O)N[C@@H](CCC(=O)O)C(N)=O [BN3, -Gln-Trp-Ala-Val-Gly-His-Cha-Nle-Glu-NH2] ({DOTA-AEEA-AEEA}-QWAVGH[Cha][Nle]E-NH2) |  | Specific binding to PC-3 cells (in words) [4]: no specific binding was detectable |

Source: article PMC4761355, “Pre-clinical evaluation of eight DOTA coupled gastrin-releasing peptide receptor (GRP-R) ligands for in vivo targeting of receptor-expressing tumors” (EJNMMI Research, 2016)
